Data from patent US20010046968A1, “Opioid growth factor modulates angiogenesis” (priority 2000, published 2001).
“Also recorded” adds a separate entry of the source.

How the values were obtained:
[1] = test system: CAM arteries and veins (angiogenesis); test: CAM assay with separate counting of arteries and veins (Example 2); type: in vivo, chick; conditions: for Number of Vessels, A/V Ratio / Number of Vessels, Artery / Number of Vessels, Vein / Total Vessel Length, A/V Ratio / Total Vessel Length, Artery / Total Vessel Length, Vein: mean ± SEM
Description: The CAM assay described above was utilized. After 3 days of incubation, fertilized chick embryos were explanted and 3.2 mm methylcellulose disk containing a compound was placed onto the CAM surface. After 2 days of growth, the CAM arteries and veins were identified and imaged with a digital camera. Arteries and veins were identified based on the presence of vessel pulsation (arteries), color, and direction of blood flow within the vessels. The main artery was oriented vertically with flow originating inferiorly. A white 10% intralipid solution was injected into the CAM to enhance visualization. Total number and length of veins and arteries were counted and measured.

embryos = test: Embryo survival after placement of drug onto the CAM; type: in vivo, chicken; conditions: 48 hours after placement of drug onto the CAM
Description: (§1) The CAM model utilized in these studies has been described by Mazo et al. (FASEB J. 13: A527, 1999). In brief, fertilized white broiler chicken eggs were obtained from a local hatchery and kept at room temperature for 48 hours. The outside of the shells were washed with soap, and placed in a 70% ethyl alcohol bath for 30 seconds. The eggs were incubated at 37° C. for three days and rotated 180 degrees three times daily. After incubation, the eggs were cleansed with an iodine solution and dried on a sterile tray. The eggs were cracked, and the embryos explanted into spherical plastic 100 mm×25 mm weigh boats. Specimens were covered with a plastic lid, placed in a humidified chamber at 37° C., and maintained for 48 to 72 hours until the CAM achieved at least a 10 mm diameter.
Methylcellulose disks were prepared as reported by Mazo et al. (FASEB J. 13: A527, 1999). […] These doses were selected on the basis of prior animal and culture studies (Zagon I. S. et al., Am. J Physiol, 270: R22-R32 (1996); McLaughlin P. J. et al., Int. J. Oncol., 14: 991-998 (1999)). An equivalent volume of distilled water was utilized as a control (n=13). […]

[2] = test system: CAM blood vessels (angiogenesis); test: Chorioallantoic membrane (CAM) model, drug-impregnated methylcellulose disk, image analysis of blood vessels (Example 1); type: in vivo, chicken; conditions: for effect on angiogenesis / blood vessel growth vs control: 5 μg each per disk; for Blood Vessel Number / Blood Vessel Mean Length / Blood Vessel Length: 48 hours, mean ± SEM; for Blood Vessel Length: total length
Description: as §1
Methylcellulose disks were prepared as reported by Mazo et al. (FASEB J. 13: A527, 1999). […] These doses were selected on the basis of prior animal and culture studies (Zagon I. S. et al., Am. J Physiol, 270: R22-R32 (1996); McLaughlin P. J. et al., Int. J. Oncol., 14: 991-998 (1999)). An equivalent volume of distilled water was utilized as a control (n=13). Another series of experiments employed retinoic acid (RA: 1 μg) (Oikawa T. et al., Cancer Letters, 48: 157-162 (1989)) (n=12), VEGF (1 μg) (Wilting J. et al., Cell Tissue Res., 274: 163-174 (1993)) (n=10) and an equivalent volume of water (n=10) to validate the CAM model employed, and to provide an internal comparison to the potential angiogenic effects of OGF with other known angioactive agents. These methylcellulose solutions were placed on the tips of 3.2 mm diameter Teflon rods and allowed to dry at room temperature for 1 hour under a vacuum hood. The resultant dried disks were removed from the Teflon rods and placed on the outer third of the CAM. Only one disk was placed on each CAM. The eggs were returned to the incubator for an additional 48 hours of growth prior to examination by image analysis (Mazo J. E. et al., FASEB J., 13: A527 (1999)).
Image analysis was preformed as described previously (Mazo J. E. et al., FASEB J, 13: A527 (1999)). The location of the disk was located visually on the CAM. An identifying mark was placed in the center of the disk and 2 ml of a 10% intralipid solution was injected into the CAM obscuring the underlying yolk vessels and providing an opaque white background for the superficial vessels. The CAM was imaged on a three-chip digital camera (DKC 500 Sony, Tokyo, Japan), digitized, and exported to a personal computer (FIG. 1). A 100 mm^2 region was defined around the disk in which blood vessel quantitation was performed (Optimas 6.0, Mediacybernetics, Bothell, Wash.). Calibration was achieved by imaging a ruler placed adjacent to the embryo preparation.
All arteries and veins in this designated region centered on the applied disk were analyzed. From the digitized image, an overlying mask was created and all blood vessels were traced within the region in an unblinded manner by two different individuals. The total number of blood vessels were counted and their individual lengths added to obtain total blood vessel length.
Data were exported to Microsoft Excel (Excel 97, Microsoft, Redmond, Wash.). All values were expressed as the mean±standard error of the mean. Statistical analysis was performed using the SigmaStat 1.0 statistical software package (Jandel, San Rafael, Calif.). The Mann-Whitney rank sum test or the Student t test was used to compare continuous data. Either the Fischer exact test or χ^2 test were used for dichotomous data. A p value of less than 0.05 indicated statistical significance.

[3] = 1 μg per disk, another series of experiments

Compound: [Met^5]-enkephalin [OGF]
- Number of Vessels, A/V Ratio ([1]; 1.0 μg disk): 1.1 ± 0.2
- Number of Vessels, Artery ([1]; 1.0 μg disk): 53 ± 5
- Number of Vessels, Vein ([1]; 1.0 μg disk): 56 ± 8
- Total Vessel Length, A/V Ratio ([1]; 1.0 μg disk): 1.2 ± 0.2
- Total Vessel Length, Artery ([1]; 1.0 μg disk): 84 ± 5 mm
- Total Vessel Length, Vein ([1]; 1.0 μg disk): 81 ± 11 mm
- Number of Vessels, A/V Ratio ([1]; 5.0 μg disk): 1.6 ± 0.1
- Number of Vessels, Artery ([1]; 5.0 μg disk): 79 ± 4
- Number of Vessels, Vein ([1]; 5.0 μg disk): 51 ± 2
- Total Vessel Length, A/V Ratio ([1]; 5.0 μg disk): 1.3 ± 0.1
- Total Vessel Length, Artery ([1]; 5.0 μg disk): 107 ± 4 mm
- Total Vessel Length, Vein ([1]; 5.0 μg disk): 82 ± 3 mm
- effect on artery/vein ratios for vessel number and length ([1]; summary of Table II): decreased artery/vein ratios
- effect on total number and length of blood vessels in comparison to controls ([1]; summary of Table II): decreased total number and length of blood vessels
- toxicity (embryo survival) (embryos): all embryos survived
- effect on angiogenesis / blood vessel growth vs control [2]: blood vessel growth was suppressed; also recorded: marked inhibitory effect on angiogenesis
- decrease in number of blood vessels in comparison to controls ([2]; 5 μg per disk): 35%
- decrease in total blood vessel length in contrast to control ([2]; 5 μg per disk): 20%
- effect on mean blood vessel length vs control ([2]; 5 μg per disk): significantly increases
- effect on total blood vessel length vs control ([2]; 5 μg per disk): significantly inhibited
- effect on total number of blood vessels vs control ([2]; 5 μg per disk): significantly decreases
- increase in mean blood vessel length from control values ([2]; 5 μg per disk): 23%
- Blood Vessel Number ([2]; 5 μg per disk, 100 mm^2 region around disk): 102 ± 11
- Blood Vessel Mean Length ([2]; 5 μg per disk, 100 mm^2 region): 1.81 ± 0.13 mm
- Blood Vessel Length ([2]; 5 μg per disk, 100 mm^2 region): 179 ± 12 mm

Compound: O=C1CC[C@@]2(O)[C@H]3Cc4ccc(O)c5c4[C@@]2(CCN3CC2CC2)[C@H]1O5 [Naltrexone, reference compound]
- Number of Vessels, Artery ([1]; 0.1 μg disk): 80 ± 6
- Number of Vessels, Vein ([1]; 0.1 μg disk): 83 ± 4
- Total Vessel Length, Artery ([1]; 0.1 μg disk): 112 ± 6 mm
- Total Vessel Length, Vein ([1]; 0.1 μg disk): 118 ± 6 mm
- Number of Vessels, Artery ([1]; 5.0 μg disk): 203 ± 7
- Number of Vessels, Vein ([1]; 5.0 μg disk): 97 ± 4
- Total Vessel Length, Artery ([1]; 5.0 μg disk): 174 ± 4 mm
- Total Vessel Length, Vein ([1]; 5.0 μg disk): 105 ± 2 mm
- effect on mean length of blood vessels ([1]; summary of Table II): decreased
- effect on total number and length of blood vessels in comparison to controls ([1]; summary of Table II): markedly increased both total number and length of all blood vessels
- effect on angiogenesis / blood vessel growth vs control [2]: Vessel inhibition is no longer seen
- effect on total blood vessel length vs control ([2]; 5 μg per disk): increased
- effect on total number of blood vessels vs control ([2]; 5 μg per disk): increased
- effect on mean blood vessel length vs control ([2]; 5 μg per disk, listed as NTX): decreased; also recorded: marked decrease

Compound: C=CCN1CC[C@]23c4c5ccc(O)c4O[C@H]2C(=O)CC[C@@]3(O)[C@H]1C5 [NAL, naloxone, reference compound]
- effect on angiogenesis / blood vessel growth vs control [2]: no effect on vessel growth

Compound: VEGF
- Number of Vessels, A/V Ratio ([1]; 0.2 μg disk): 1.3 ± 0.1
- Number of Vessels, Artery ([1]; 0.2 μg disk): 83 ± 5
- Number of Vessels, Vein ([1]; 0.2 μg disk): 75 ± 11
- Total Vessel Length, A/V Ratio ([1]; 0.2 μg disk): 1.2 ± 0.1
- Total Vessel Length, Artery ([1]; 0.2 μg disk): 117 ± 3 mm
- Total Vessel Length, Vein ([1]; 0.2 μg disk): 109 ± 14 mm
- Number of Vessels, A/V Ratio ([1]; 1.0 μg disk): 2.2 ± 0.2
- Number of Vessels, Artery ([1]; 1.0 μg disk): 248 ± 13
- Number of Vessels, Vein ([1]; 1.0 μg disk): 120 ± 7
- Total Vessel Length, A/V Ratio ([1]; 1.0 μg disk): 1.5 ± 0.2
- Total Vessel Length, Artery ([1]; 1.0 μg disk): 173 ± 8 mm
- Total Vessel Length, Vein ([1]; 1.0 μg disk): 117 ± 5 mm
- decrease in mean blood vessel length in comparison to control ([2]; 1 μg per disk): 33%
- effect on blood vessel growth vs control ([2]; 1 μg per disk): excitatory effect on blood vessel growth
- effect on calculated mean vessel length vs control ([2]; 1 μg per disk): decreased
- effect on number of blood vessels vs control ([2]; 1 μg per disk): markedly increased
- effect on total length of blood vessels vs control ([2]; 1 μg per disk): marked increase
- increase in total vessel length in comparison to control ([2]; 1 μg per disk): 22%
- increase in vessel number in comparison to control ([2]; 1 μg per disk): 83%
- Blood Vessel Mean Length [2, 3]: 0.79 ± 0.02 mm
- Blood Vessel Number [2, 3]: 358 ± 16
- Blood Vessel Length [2, 3]: 280 ± 7 mm

Compound: CC1=C(/C=C/C(C)=C/C=C/C(C)=C/C(=O)O)C(C)(C)CCC1 [Retinoic acid, retinoic acid, reference compound]
- Number of Vessels, A/V Ratio ([1]; dose not given): 1.5 ± 0.1
- Number of Vessels, Artery ([1]; dose not given): 60 ± 5
- Number of Vessels, Vein ([1]; dose not given): 39 ± 3
- Total Vessel Length, A/V Ratio ([1]; dose not given): 1.3 ± 0.1
- Total Vessel Length, Artery ([1]; dose not given): 83 ± 5 mm
- Total Vessel Length, Vein ([1]; dose not given): 66 ± 4 mm
- decrease in number of blood vessels compared to control group ([2]; 1 μg per disk): 60%
- decrease in total blood vessel length compared to control group ([2]; 1 μg per disk): 33%
- increase in mean blood vessel length relative to control group ([2]; 1 μg per disk): 75%
- Blood Vessel Mean Length [2, 3]: 2.07 ± 0.13 mm
- Blood Vessel Number [2, 3]: 79 ± 10
- Blood Vessel Length [2, 3]: 153 ± 11 mm
